# Bridge positions count the residues as written; N and C are the ends. Square brackets hold non-standard residues; d marks the D form. Peptide text beside a SMILES is read from it. * marks the point of attachment. Ala(imidazo(1,2-a)pyr3yl) = N[C@@H](Cc1cnc2ccccn12)C(=O)O; NMePhe(4-COOH) = CN[C@@H](Cc1ccc(C(=O)O)cc1)C(=O)O; Phe(3-COOH) = N[C@@H](Cc1cccc(C(=O)O)c1)C(=O)O; NMePhe(3-Cl) = CN[C@@H](Cc1cccc(Cl)c1)C(=O)O; 3Pal(6-NH2) = Nc1ccc(C[C@H](N)C(=O)O)cn1; NMeW = CN[C@@H](Cc1c[nH]c2ccccc12)C(=O)O; Lys(N3) = [N-]=[N+]=NCCCC[C@H](N)C(=O)O; NMeY = CN[C@@H](Cc1ccc(O)cc1)C(=O)O; Nva(3-Et) = CCC(CC)[C@H](N)C(=O)O; NMeF = CN[C@@H](Cc1ccccc1)C(=O)O; 4Pal = N[C@@H](Cc1ccncc1)C(=O)O; PEG4 = NCCOCCOCCOCCOCCC(=O)O; Carboxymethyl = O=C(O)C*; NH(CH2)3NH2 = NCCCN*
# Tests used:
# [1] = target: T1, human transferrin receptor (hTfR) (Homo sapiens, UniProt P02786); experiment: SPR measurement under pH 7.4 conditions (Biacore T200, CM3 chip, hTfR captured by His Tag antibody); assay type: binding; conditions: read-out: hTfR SPR pH7.4 KD
# [2] = target: T1, human transferrin receptor (hTfR); experiment: SPR measurement under pH 6.0 conditions (Biacore T200, NTA chip, immobilized hTfR); assay type: binding; conditions: read-out: hTfR SPR pH6.0 KD
# T1 sequence (P02786 whole entry): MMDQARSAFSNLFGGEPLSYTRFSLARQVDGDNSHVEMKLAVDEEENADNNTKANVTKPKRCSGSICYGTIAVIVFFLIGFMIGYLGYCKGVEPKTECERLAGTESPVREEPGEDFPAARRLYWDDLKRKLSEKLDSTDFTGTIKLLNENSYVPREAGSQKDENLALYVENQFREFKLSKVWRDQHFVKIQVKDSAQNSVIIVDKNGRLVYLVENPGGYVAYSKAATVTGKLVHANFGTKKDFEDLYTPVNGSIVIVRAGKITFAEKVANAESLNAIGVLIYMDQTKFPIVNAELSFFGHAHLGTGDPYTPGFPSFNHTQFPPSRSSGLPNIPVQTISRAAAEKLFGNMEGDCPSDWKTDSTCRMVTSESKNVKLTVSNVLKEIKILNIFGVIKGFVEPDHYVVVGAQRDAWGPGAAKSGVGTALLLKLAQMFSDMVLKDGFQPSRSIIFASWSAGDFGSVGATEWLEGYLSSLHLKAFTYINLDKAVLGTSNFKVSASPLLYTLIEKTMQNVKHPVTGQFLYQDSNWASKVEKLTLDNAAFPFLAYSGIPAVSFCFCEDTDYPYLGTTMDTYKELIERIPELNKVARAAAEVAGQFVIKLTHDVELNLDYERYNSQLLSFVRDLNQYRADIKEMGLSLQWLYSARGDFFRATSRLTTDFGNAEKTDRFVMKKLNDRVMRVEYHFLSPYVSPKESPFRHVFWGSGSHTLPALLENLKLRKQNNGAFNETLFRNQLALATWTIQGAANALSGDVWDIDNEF
SMILES,"Kd ([1]; pH 7.4, single-cycle kinetics) [nM]","Kd ([2]; pH 6.0, single-cycle kinetics) [nM]","Kd ([1]; SPR, pH 7.4, Table 1-3-2-2) [nM]","Kd ([2]; SPR, pH 6.0, Table 1-3-2-2) [nM]"
CC[C@H](C)[C@@H]1NC(=O)[C@H](Cc2ccc(OC)cc2)NC(=O)[C@H](CCCNC(=N)N)NC(=O)[C@H](CC(N)=O)NC(=O)[C@H](Cc2c[nH]c3ccccc23)N(C)C(=O)[C@H](C(C)C)NC(=O)[C@H](Cc2cccc(Cl)c2)N(C)C(=O)[C@H](C(C)C)NC(=O)[C@H](C)NC(=O)CSC[C@@H](C(=O)NCCOCCOCCOCCOCCC(N)=O)NC(=O)[C@H](Cc2ccc(O)cc2)N(C)C(=O)[C@H](Cc2ccccc2)NC(=O)[C@H](CCCNC(=N)N)NC(=O)[C@H](CCC(=O)NCCCN)NC(=O)[C@H]([C@@H](C)CC)NC1=O [compound 175] ({CH2CO}-AV[NMePhe(3-Cl)]V[NMeW]NRY(Me)IIE(NH(CH2)3NH2)RF[NMeY]C[PEG4]-NH2; thioether N-15),3.04,12.2,,
CC[C@H](C)[C@@H]1NC(=O)[C@H](Cc2ccc(OCC(=O)O)cc2)NC(=O)[C@H](Cc2ccc(O)cc2)NC(=O)[C@H](CC(N)=O)NC(=O)[C@H](Cc2c[nH]c3ccccc23)N(C)C(=O)[C@H](C(C)C)NC(=O)[C@H](Cc2cccc(Cl)c2)N(C)C(=O)[C@H](C(C)C)NC(=O)[C@H](C)NC(=O)CSC[C@@H](C(=O)NCCOCCOCCOCCOCCC(N)=O)NC(=O)[C@H](Cc2ccc(O)cc2)N(C)C(=O)[C@H](Cc2cccc(C(=O)O)c2)NC(=O)[C@H](CCCNC(=N)N)NC(=O)[C@H](CCCCN)NC(=O)[C@H]([C@@H](C)CC)NC1=O [compound 177],0.134,2.26,,
CC[C@H](C)[C@@H]1NC(=O)[C@H](Cc2ccc(OCC(=O)O)cc2)NC(=O)[C@H](Cc2ccc(O)cc2)NC(=O)[C@H](CC(N)=O)NC(=O)[C@H](Cc2c[nH]c3ccccc23)N(C)C(=O)[C@H](C(C)C)NC(=O)[C@H](Cc2cccc(Cl)c2)N(C)C(=O)[C@H](C(C)C)NC(=O)[C@H](C)NC(=O)CSC[C@@H](C(=O)NCCOCCOCCOCCOCCC(N)=O)NC(=O)[C@H](Cc2ccc(C(=O)NCCOCCOCCOCCOCCC(=O)O)cc2)N(C)C(=O)[C@H](Cc2cccc(C(=O)O)c2)NC(=O)[C@H](CCCNC(=N)N)NC(=O)[C@H](CCCCN)NC(=O)[C@H]([C@@H](C)CC)NC1=O [compound 178] ({CH2CO}-AV[NMePhe(3-Cl)]V[NMeW]NYY(Carboxymethyl)IIKR[Phe(3-COOH)][NMePhe(4-COOH)](PEG4)C[PEG4]-NH2; thioether N-15),0.391,3.1,,
CC[C@H](C)[C@@H]1NC(=O)[C@H](Cc2ccc(OC)cc2)NC(=O)[C@H](Cc2ccc(O)cc2)NC(=O)[C@H](CC(N)=O)NC(=O)[C@H](Cc2c[nH]c3ccccc23)N(C)C(=O)[C@H](C(C)C)NC(=O)[C@H](Cc2cccc(Cl)c2)N(C)C(=O)[C@H](C(C)C)NC(=O)[C@H](C)NC(=O)CSC[C@@H](C(=O)NCCOCCOCCOCCOCCC(N)=O)NC(=O)[C@H](Cc2ccc(C(=O)NCCOCCOCCOCCOCCC(=O)O)cc2)N(C)C(=O)[C@H](Cc2cccc(C(=O)O)c2)NC(=O)[C@H](CCCNC(=N)N)NC(=O)[C@H](CCCCN)NC(=O)[C@H]([C@@H](C)CC)NC1=O [compound 180] ({CH2CO}-AV[NMePhe(3-Cl)]V[NMeW]NYY(Me)IIKR[Phe(3-COOH)][NMePhe(4-COOH)](PEG4)C[PEG4]-NH2; thioether N-15),0.229,0.957,,
"CCC(CC)[C@@H]1NC(=O)[C@H](Cc2ccc(OC)cc2)NC(=O)[C@H](Cc2ccc(N)nc2)NC(=O)[C@H](CC(N)=O)NC(=O)[C@H](Cc2cnc3ccccn23)NC(=O)[C@H](C(C)C)NC(=O)[C@H](Cc2cccc(Cl)c2)N(C)C(=O)[C@H](C(C)C)NC(=O)[C@H](C)NC(=O)CSC[C@@H](C(=O)NCC(=O)N[C@@H](CCCCN=[N+]=[N-])C(N)=O)NC(=O)[C@H](Cc2ccc(C(=O)O)cc2)N(C)C(=O)[C@H](Cc2ccncc2)NC(=O)[C@H](CCCNC(=N)N)NC(=O)[C@H](CCCNC(=N)N)NC(=O)[C@H]([C@@H](C)CC)NC1=O [compound 181] ({CH2CO}-AV[NMePhe(3-Cl)]V[Ala(imidazo(1,2-a)pyr3yl)]N[3Pal(6-NH2)]Y(Me)[Nva(3-Et)]IRR[4Pal][NMePhe(4-COOH)]CG[Lys(N3)]-NH2; thioether N-15)",24.5,124,,
CCC(CC)[C@@H]1NC(=O)[C@H](Cc2ccc(OC)cc2)NC(=O)[C@H](Cc2ccc(N)nc2)NC(=O)[C@H](CC(N)=O)NC(=O)[C@H](Cc2cnc3ccccn23)NC(=O)[C@H](C(C)C)NC(=O)[C@H](Cc2cccc(Cl)c2)N(C)C(=O)[C@H](C(C)C)NC(=O)[C@H](C)NC(=O)CSC[C@@H](C(=O)NCC(=O)N[C@H](CCC(=O)O)C(=O)N[C@H](CCC(=O)O)C(=O)N[C@H](CCC(=O)O)C(=O)N[C@H](CO)C(=O)N[C@H](CO)C(=O)N[C@@H](CCCCN=[N+]=[N-])C(N)=O)NC(=O)[C@H](Cc2ccc(C(=O)O)cc2)N(C)C(=O)[C@H](Cc2ccncc2)NC(=O)[C@H](CCCNC(=N)N)NC(=O)[C@H](CCCNC(=N)N)NC(=O)[C@H]([C@@H](C)CC)NC1=O [compound 184],,,136,121
CC[C@H](C)[C@@H]1NC(=O)[C@H](Cc2ccc(OC)cc2)NC(=O)[C@H](Cc2ccc(N)nc2)NC(=O)[C@H](CC(N)=O)NC(=O)[C@H](Cc2cnc3ccccn23)NC(=O)[C@H](C(C)C)NC(=O)[C@H](Cc2cccc(Cl)c2)N(C)C(=O)[C@H](C(C)C)NC(=O)[C@H](C)NC(=O)CSC[C@@H](C(=O)NCC(=O)N[C@H](CCC(=O)O)C(=O)N[C@H](CCC(=O)O)C(=O)N[C@H](CCC(=O)O)C(=O)N[C@H](CO)C(=O)N[C@H](CO)C(=O)N[C@@H](CCCCN=[N+]=[N-])C(N)=O)NC(=O)[C@H](Cc2ccc(O)cc2)N(C)C(=O)[C@H](Cc2ccncc2)NC(=O)[C@H](CCCNC(=N)N)NC(=O)[C@H](CCCNC(=N)N)NC(=O)[C@H]([C@@H](C)CC)NC1=O [compound 185],,,28.7,381
CCC(CC)[C@@H]1NC(=O)[C@H](Cc2ccc(O)cc2)NC(=O)[C@H](Cc2ccc(N)nc2)NC(=O)[C@H](CC(N)=O)NC(=O)[C@H](Cc2c[nH]c3ccccc23)N(C)C(=O)[C@H](C(C)C)NC(=O)[C@H](Cc2ccccc2)N(C)C(=O)[C@H](C(C)C)NC(=O)[C@H](C)NC(=O)CSC[C@@H](C(=O)NCC(=O)N[C@@H](CCCCN=[N+]=[N-])C(N)=O)NC(=O)[C@H](Cc2ccc(C(=O)O)cc2)N(C)C(=O)[C@H](Cc2ccc(O)cc2)NC(=O)[C@H](CCCNC(=N)N)NC(=O)[C@H](CCCCN)NC(=O)[C@H]([C@@H](C)CC)NC1=O [compound 187] ({CH2CO}-AV[NMeF]V[NMeW]N[3Pal(6-NH2)]Y[Nva(3-Et)]IKRY[NMePhe(4-COOH)]CG[Lys(N3)]-NH2; thioether N-15),,,9.9,30.7
CCC(CC)[C@@H]1NC(=O)[C@H](Cc2ccc(O)cc2)NC(=O)[C@H](Cc2ccc(N)nc2)NC(=O)[C@H](CC(N)=O)NC(=O)[C@H](Cc2c[nH]c3ccccc23)N(C)C(=O)[C@H](C(C)C)NC(=O)[C@H](Cc2ccccc2)N(C)C(=O)[C@H](C(C)C)NC(=O)[C@H](C)NC(=O)CSC[C@@H](C(=O)NCC(=O)N[C@H](CCC(=O)O)C(=O)N[C@H](CCC(=O)O)C(=O)N[C@H](CCC(=O)O)C(=O)N[C@H](CO)C(=O)N[C@H](CO)C(=O)N[C@@H](CCCCN=[N+]=[N-])C(N)=O)NC(=O)[C@H](Cc2ccc(C(=O)O)cc2)N(C)C(=O)[C@H](Cc2ccc(O)cc2)NC(=O)[C@H](CCCNC(=N)N)NC(=O)[C@H](CCCCN)NC(=O)[C@H]([C@@H](C)CC)NC1=O [compound 188] ({CH2CO}-AV[NMeF]V[NMeW]N[3Pal(6-NH2)]Y[Nva(3-Et)]IKRY[NMePhe(4-COOH)]CG[dE][dE][dE][dS][dS][Lys(N3)]-NH2; thioether N-15),,,34,175
"CC[C@H](C)[C@@H]1NC(=O)[C@H](Cc2ccc(OC)cc2)NC(=O)[C@H](Cc2ccc(N)nc2)NC(=O)[C@H](CC(N)=O)NC(=O)[C@H](Cc2cnc3ccccn23)NC(=O)[C@H](C(C)C)NC(=O)[C@H](Cc2ccccc2)N(C)C(=O)[C@H](C(C)C)NC(=O)[C@H](C)NC(=O)CSC[C@@H](C(=O)NCC(=O)N[C@@H](CCCCN=[N+]=[N-])C(N)=O)NC(=O)[C@H](Cc2ccc(C(=O)O)cc2)N(C)C(=O)[C@H](Cc2ccncc2)NC(=O)[C@H](CCCNC(=N)N)NC(=O)[C@H](CCCNC(=N)N)NC(=O)[C@H]([C@@H](C)CC)NC1=O [compound 189] ({CH2CO}-AV[NMeF]V[Ala(imidazo(1,2-a)pyr3yl)]N[3Pal(6-NH2)]Y(Me)IIRR[4Pal][NMePhe(4-COOH)]CG[Lys(N3)]-NH2; thioether N-15)",,,81.2,384
"CC[C@H](C)[C@@H]1NC(=O)[C@H](Cc2ccc(OC)cc2)NC(=O)[C@H](Cc2ccc(N)nc2)NC(=O)[C@H](CC(N)=O)NC(=O)[C@H](Cc2cnc3ccccn23)NC(=O)[C@H](C(C)C)NC(=O)[C@H](Cc2ccccc2)N(C)C(=O)[C@H](C(C)C)NC(=O)[C@H](C)NC(=O)CSC[C@@H](C(=O)NCC(=O)N[C@@H](CCCCN=[N+]=[N-])C(N)=O)NC(=O)[C@H](Cc2ccc(O)cc2)N(C)C(=O)[C@H](Cc2ccncc2)NC(=O)[C@H](CCCNC(=N)N)NC(=O)[C@H](CCCNC(=N)N)NC(=O)[C@H]([C@@H](C)CC)NC1=O [compound 190] ({CH2CO}-AV[NMeF]V[Ala(imidazo(1,2-a)pyr3yl)]N[3Pal(6-NH2)]Y(Me)IIRR[4Pal][NMeY]CG[Lys(N3)]-NH2; thioether N-15)",,,57.1,177
CC[C@H](C)[C@@H]1NC(=O)[C@H](Cc2ccc(OC)cc2)NC(=O)[C@H](Cc2ccc(N)nc2)NC(=O)[C@H](CC(N)=O)NC(=O)[C@H](Cc2c[nH]c3ccccc23)NC(=O)[C@H](C(C)C)NC(=O)[C@H](Cc2cccc(Cl)c2)N(C)C(=O)[C@H](C(C)C)NC(=O)[C@H](C)NC(=O)CSC[C@@H](C(=O)NCC(=O)NCC(=O)NCC(=O)NCC(=O)N[C@@H](CO)C(=O)N[C@@H](CO)C(=O)N[C@@H](CCCCN=[N+]=[N-])C(N)=O)NC(=O)[C@H](Cc2ccc(O)cc2)N(C)C(=O)[C@H](Cc2ccncc2)NC(=O)[C@H](CCCNC(=N)N)NC(=O)[C@H](CCCNC(=N)N)NC(=O)[C@H]([C@@H](C)CC)NC1=O [compound 191],,,0.89,3.82

# Source: patent EP4667483A1, “HUMAN TRANSFERRIN RECEPTOR-BINDING PEPTIDE” (JCR Pharmaceuticals Co., Ltd., priority 2023, dated 2024)
